T/C data for 24 compounds are collected here from PubChem BioAssay AID330 (DTP/NCI, 2004).

Where “and” joins values, the source holds several entries; their conditions need not be identical. Equal values may be shown once. Toxic doses and inconclusive results are not listed.

The experiment concerns P388 leukemia ip, CD2F1 mice, survival T/C. Kind of experiment: NCI In Vivo Anticancer Drug Screen. Data for tumor model P388 Leukemia (intraperitoneal) in CD2F1 (CDF1) mice. As to conditions: endpoint: median survival time, higher = longer survival. The method in brief: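 Mice carrying the transplanted tumor received test compound or vehicle. Survival was recorded in each group, and the value is the treated-group measurement divided by that of the vehicle-treated control group.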

Where [1] appears, read: dose: 25.0 mg/kg/injection, schedule: Q01DX005 (ip), vehicle: saline with Tween-80.
Setting [2] is: dose: 50.0 mg/kg/injection, schedule: Q01DX005 (ip), vehicle: saline with Tween-80.
The mark [3] stands for this setting: dose: 50.0 mg/kg/injection, schedule: Q01DX005 (ip), vehicle: saline.
Setting [4] is: dose: 100.0 mg/kg/injection, schedule: Q01DX005 (ip), vehicle: saline.
[5] abbreviates: dose: 200.0 mg/kg/injection, schedule: Q01DX005 (ip), vehicle: saline.
The mark [6] stands for this setting: dose: 12.5 mg/kg/injection, schedule: Q01DX009 (ip), vehicle: other.
[7] abbreviates: dose: 60.0 mg/kg/injection, schedule: Q01DX005 (ip), vehicle: saline with Tween-80.
The mark [8] stands for this setting: dose: 120.0 mg/kg/injection, schedule: Q01DX005 (ip), vehicle: saline with Tween-80.
Setting [9] is: dose: 240.0 mg/kg/injection, schedule: Q01DX005 (ip), vehicle: saline with Tween-80.
Setting [10] is: dose: 100.0 mg/kg/injection, schedule: Q04DX002 (ip), vehicle: saline.
The mark [11] stands for this setting: dose: 100.0 mg/kg/injection, schedule: Q01DX005 (ip), vehicle: saline with Tween-80.
The mark [12] stands for this setting: dose: 200.0 mg/kg/injection, schedule: Q01DX005 (ip), vehicle: saline with Tween-80.
Where [13] appears, read: dose: 12.5 mg/kg/injection, schedule: Q01DX009 (ip), vehicle: saline with Tween-80.
The mark [14] stands for this setting: dose: 25.0 mg/kg/injection, schedule: Q01DX009 (ip), vehicle: saline with Tween-80.
Setting [15] is: dose: 100.0 mg/kg/injection, schedule: Q01DX009 (ip), vehicle: saline with Tween-80.
The mark [16] stands for this setting: dose: 200.0 mg/kg/injection, schedule: Q01DX009 (ip), vehicle: saline with Tween-80.
Where [17] appears, read: dose: 400.0 mg/kg/injection, schedule: Q01DX009 (ip), vehicle: saline with Tween-80.

For `CN(C)c1ccc(C(=C(c2ccc(N(C)C)cc2)c2ccc(N(C)C)cc2)c2ccc(N(C)C)cc2)cc1`, the T/C (dose: 12.5 mg/kg/injection, schedule: Q01DX005 (ip), vehicle: saline with Tween-80) is 96 % of control; the T/C under setting [1] is 92 % of control; the T/C under setting [2] was 89 % of control.
For `CCCNC(c1ccc(N(CC)CC)cc1)C(Cl)(Cl)Cl` (stereo unspecified), the T/C is, setting by setting: under setting [3], 103 % of control; under setting [4], 106 % of control; under setting [5], 96 % of control.
As for `CCOc1n[nH]c(-c2ccc(Cl)cc2Cl)n1`, the T/C was 102 % of control (dose: 100.0 mg/kg/injection, schedule: Q01DX001 (ip), vehicle: Klucel (hydroxypropylcellulose) (HPC)); 100 % of control (dose: 200.0 mg/kg/injection, schedule: Q01DX001 (ip), vehicle: Klucel (hydroxypropylcellulose) (HPC)); 101 % of control (dose: 400.0 mg/kg/injection, schedule: Q01DX001 (ip), vehicle: Klucel (hydroxypropylcellulose) (HPC)).
On to `COc1cccc2c1C(=O)c1c(O)c3c(c(O)c1C2=O)C/C(=N/O)CC3OC1CC(NC(=O)C(F)(F)F)C(O)C(C)O1` (stereo unspecified), for which the T/C was 106 % of control (dose: 1.56 mg/kg/injection, schedule: Q01DX009 (ip), vehicle: other); 88 % of control (dose: 3.13 mg/kg/injection, schedule: Q01DX009 (ip), vehicle: other); 92 % of control (dose: 6.25 mg/kg/injection, schedule: Q01DX009 (ip), vehicle: other); 110 % of control under setting [6].
For `CCOC(=O)c1cc2c(nc1C)-c1cc(Cl)ccc1OC2OCc1ccccc1` (stereo unspecified), the T/C under setting [7] was 88 % of control, the T/C under setting [8] was 94 % of control and the T/C under setting [9] was 97 % of control.
Take `CC(C(=O)O)S(=O)(=O)C(C)C(=O)O` (stereo unspecified): the T/C runs as follows: under setting [10], 98 % of control; (dose: 200.0 mg/kg/injection, schedule: Q04DX002 (ip), vehicle: saline) 91 % of control.
With `CCN(CC)C1(C(F)C(F)(F)F)OCC2(CO1)COC(C(F)C(F)(F)F)(N(CC)CC)OC2` (stereo unspecified), the T/C was 98 % of control under setting [7], 104 % of control under setting [8] and 91 % of control under setting [9].
As for `CCOC(=O)c1cc(-c2ccccc2)c(OC)c(=O)nc1-c1ccccc1`, the T/C reads like this: under setting [1], 100 % of control; under setting [2], 100 % of control; under setting [11], 100 % of control; under setting [12], 112 % of control.
For the compound `OC1CCC(O)C1` (stereo unspecified), the T/C by setting is: under setting [3], 100 % of control; under setting [4], 105 % of control; under setting [5], 98 % of control.
Consider `CC(C)C1(C(=O)NNC(=O)CCCc2ccc(N(CCCl)CCCl)cc2)OC2(O)CCCCCN2C1=O` (stereo unspecified), for which the T/C is, setting by setting: (dose: 6.25 mg/kg/injection, schedule: Q04DX003 (ip), vehicle: Klucel (hydroxypropylcellulose) (HPC)) 109 % of control; (dose: 12.5 mg/kg/injection, schedule: Q04DX003 (ip), vehicle: Klucel (hydroxypropylcellulose) (HPC)) 121 % of control; (dose: 100.0 mg/kg/injection, schedule: Q04DX003 (ip), vehicle: Klucel (hydroxypropylcellulose) (HPC)) 184 % of control.
For `CCN(CC)c1nc(N)nc(N)n1`, the T/C is, setting by setting: (dose: 6.25 mg/kg/injection, schedule: Q01DX009 (ip), vehicle: saline) 106 % of control; under setting [13], 107 % of control; (dose: 12.5 mg/kg/injection, schedule: Q01DX009 (ip), vehicle: saline) 103 % of control; under setting [14], 103 % of control; (dose: 25.0 mg/kg/injection, schedule: Q01DX009 (ip), vehicle: saline) 107 % of control and 94 % of control; (dose: 50.0 mg/kg/injection, schedule: Q01DX009 (ip), vehicle: saline with Tween-80) 107 % of control and 94 % of control. The T/C runs as follows: (dose: 50.0 mg/kg/injection, schedule: Q01DX009 (ip), vehicle: saline) 100 % of control; under setting [15], 101 % of control; (dose: 100.0 mg/kg/injection, schedule: Q01DX009 (ip), vehicle: saline) 97 % of control; under setting [16], 88 % of control.
As to `CN(C)c1ccc(N=Nc2ccc3cc4ccccc4cc3c2)cc1`, the T/C by setting is: (dose: 25.0 mg/kg/injection, schedule: Q04DX003 (ip), vehicle: saline with Tween-80) 101 % of control; (dose: 50.0 mg/kg/injection, schedule: Q04DX003 (ip), vehicle: saline with Tween-80) 105 % of control.
Regarding `c1ccc2cc(-c3nc4cccc5c4n3CCC5)ccc2c1`, the T/C is, setting by setting: under setting [15], 105 % of control; under setting [16], 95 % of control; under setting [17], 115 % of control.
As to `CCN(CC)C(=Nc1ccccc1)NC#N`, the T/C is 110 % of control (dose: 50.0 mg/kg/injection, schedule: Q01DX005 (ip), vehicle: Klucel (hydroxypropylcellulose) (HPC)); 105 % of control (dose: 100.0 mg/kg/injection, schedule: Q01DX005 (ip), vehicle: Klucel (hydroxypropylcellulose) (HPC)); 96 % of control (dose: 200.0 mg/kg/injection, schedule: Q01DX005 (ip), vehicle: Klucel (hydroxypropylcellulose) (HPC)).
In the case of `CC1(O)c2ccccc2[P+](C)(c2ccccc2)c2ccccc21` (stereo unspecified), the T/C under setting [13] was 111 % of control and the T/C under setting [14] was 109 % of control.
For `C=C(Cl)/C=N/C(=O)NC(O)C(=C)Cl` (stereo unspecified), the T/C is, setting by setting: under setting [2], 93 % of control; under setting [11], 96 % of control; under setting [12], 93 % of control.
Take `CCOC(=O)C1C(C(=O)c2ccc(Br)cc2)C12C(=O)N(C)c1ccccc12` (stereo unspecified): the T/C is, setting by setting: (dose: 12.5 mg/kg/injection, schedule: Q04DX002 (ip), vehicle: saline with Tween-80) 99 % of control; (dose: 25.0 mg/kg/injection, schedule: Q04DX002 (ip), vehicle: saline with Tween-80) 92 % of control; (dose: 50.0 mg/kg/injection, schedule: Q04DX002 (ip), vehicle: saline with Tween-80) 93 % of control.
Regarding `CC(N)C12CC3CC(CC(C3)C1)C2` (stereo unspecified), the T/C was 108 % of control (dose: 25.0 mg/kg/injection, schedule: Q04DX002 (ip), vehicle: saline); 100 % of control (dose: 50.0 mg/kg/injection, schedule: Q04DX002 (ip), vehicle: saline); 100 % of control under setting [10]; 101 % of control (dose: 100.0 mg/kg/injection, schedule: Q04DX002 (ip), vehicle: suspension in saline).
Consider `Cc1cc2[nH]c3c(C#N)c(OC(=O)N(C)C)c(-c4ccccc4)c(=O)n3c2cc1C`, for which the T/C was 97 % of control under setting [7], 90 % of control under setting [8] and 92 % of control under setting [9].
With `CCOC(OCC)C(=O)NNS(=O)(=O)c1ccc(C)cc1`, the T/C by setting is: under setting [6], 105 % of control; (dose: 25.0 mg/kg/injection, schedule: Q01DX009 (ip), vehicle: other) 106 % of control; (dose: 50.0 mg/kg/injection, schedule: Q01DX009 (ip), vehicle: other) 100 % of control; (dose: 100.0 mg/kg/injection, schedule: Q01DX009 (ip), vehicle: other) 99 % of control; (dose: 200.0 mg/kg/injection, schedule: Q01DX009 (ip), vehicle: other) 90 % of control.
Regarding `CCOC(=O)CSc1nnc(-c2ccc3c(c2)OCO3)o1`, the T/C is 102 % of control (dose: 62.5 mg/kg/injection, schedule: Q01DX001 (ip), vehicle: Klucel (hydroxypropylcellulose) (HPC)); 105 % of control (dose: 125.0 mg/kg/injection, schedule: Q01DX001 (ip), vehicle: Klucel (hydroxypropylcellulose) (HPC)); 108 % of control (dose: 250.0 mg/kg/injection, schedule: Q01DX001 (ip), vehicle: Klucel (hydroxypropylcellulose) (HPC)).
With `C=C(C)CNC(=O)C(C)O` (stereo unspecified), the T/C is 97 % of control under setting [2], 93 % of control under setting [11] and 99 % of control under setting [12].
`COC(=O)c1c(C(=O)OC)c(-c2ccc(Cl)c(Cl)c2)n2c1CCC2`: the T/C was 87 % of control under setting [15], 89 % of control under setting [16] and 88 % of control under setting [17].
Consider `COc1ccc2nc(-c3ccccc3)cc(N=[N+]=[N-])c2c1`, for which the T/C reads like this: under setting [7], 100 % of control; under setting [8], 97 % of control; under setting [9], 102 % of control.
